{"source": "ChEMBL document CHEMBL2073934", "about": "“Functional characterization of the mouse organic-anion-transporting polypeptide 2” (Biochim Biophys Acta, 2002)", "molecules": {"B1": {"name": "Solute carrier organic anion transporter family member 1A4 (Mus musculus) (protein)", "chain": "MGKSEKEVATHGVRCFSKIKAFLLALTCAYVSKSLSGTYMNSMLTQIERQFGIPTSVVGLINGSFEIGNLLLIIFVSYFGTKLHRPIMIGVGCAVMGLGCFLISIPHFLMGRYEYETTILPTSNLSSNSFVCTENRTQTLKPTQDPTECVKEMKSLMWIYVLVGNIIRGMGETPIMPLGISYIEDFAKSENSPLYIGILETGMTIGPLIGLLLGSSCANIYVDTGSVNTDDLTITPTDTRWVGAWWIGFLVCAGVNILTSIPFFFFPKTLLKEGLQDNGDGTENAKEEKHREKIKEENRGITKDFFLFMKSLSCNPIYMIFILISVIQVNAFINSFTFMPKYLEQQYGKSTAEIVFLMGLYMLPPICLGYLIGGLIMKKFKITVKKAAYIGFWLSLTEYLLSFVSYIMTCDNFPVAGLTTSYEGVQHPLYVENNVLADCNTKCSCLTNTWDPVCGDNGLSYMSACLAGCEKSVGTGTNMVFQNCSCIQSSGNASAVLGLCDKGPECANKLQYFLIISIIGCFIFSLGAIPGYMVLLRCMKSEEKSLGVGLHTFCMRILGGIPAPIYFGALIDRTCLHWGTLKCGEPGACRMYDINSFRRIYLGLPAALRGASFLPALFILILMRKFQFPGDIDSSDTDPAEMKLTAKESKCTNVHRSPTMQNDGERKTKL"}}, "note": "Where a SMILES comes first, the peptide text is derived from it. [ ]: non-standard residue; d: D form.", "data": [{"molecular_target": "T1, Solute carrier organic anion transporter family member 1A4 (Mus musculus, UniProt Q9EP96)", "T1 sequence (Q9EP96 whole entry)": "B1 chain", "test": "(§1) TP_TRANSPORTER: uptake in Xenopus laevis oocytes", "format": "functional, cell-based", "details": "oocyte", "values": [{"molecule": "CC(C)C[C@@H]1NC(=O)[C@@H](C(C)C)NC(=O)[C@@H]2CCCN2C(=O)[C@@H](CC(=O)O)NC(=O)[C@@H](Cc2c[nH]c3ccccc23)NC1=O", "note": "[BQ-123] (cyclo(L[dW][dD]P[dV]))", "Activity": "substrate [+]"}, {"molecule": "C[C@@H]1O[C@@H](O[C@H]2C[C@@H](O)[C@]3(CO)[C@H]4[C@H](O)C[C@]5(C)[C@@H](C6=CC(=O)OC6)CC[C@]5(O)[C@@H]4CC[C@]3(O)C2)[C@H](O)[C@H](O)[C@H]1O", "note": "[OUABAIN]", "Activity": "substrate [+]"}, {"molecule": "O=C1OC(c2ccc(O)c(S(=O)(=O)[O-])c2)(c2ccc(O)c(S(=O)(=O)[O-])c2)c2c(Br)c(Br)c(Br)c(Br)c21.[Na+].[Na+]", "note": "[SULFOBROMOPHTHALEIN SODIUM]", "Activity": "substrate [+]"}, {"molecule": "C[C@]12CC[C@H](OS(=O)(=O)O)CC1=CC[C@@H]1[C@@H]2CC[C@]2(C)C(=O)CC[C@@H]12", "note": "[PRASTERONE SULFURIC ACID]", "Activity": "substrate [+]"}, {"molecule": "C[C@]12CC[C@@H]3c4ccc(OS(=O)(=O)O)cc4CC[C@H]3[C@@H]1CCC2=O", "note": "[ESTRONE SULFURIC ACID]", "Activity": "substrate [+]"}]}, {"substrate": "C[C@H]1O[C@@H](O[C@H]2[C@@H](O)C[C@H](O[C@H]3[C@@H](O)C[C@H](O[C@H]4CC[C@@]5(C)[C@H](CC[C@@H]6[C@@H]5C[C@@H](O)[C@]5(C)[C@@H](C7=CC(=O)OC7)CC[C@]65O)C4)O[C@@H]3C)O[C@@H]2C)C[C@H](O)[C@@H]1O", "test": "as §1", "format": "functional, cell-based, Oocyte", "details": "not given", "units": {"Km": "µM"}, "values": [{"molecule": "B1", "Km": 5.7}]}]}
